Results published in paper PMC6053504, “Inhibitory Role of the Mud Crab Short Neuropeptide F in Vitellogenesis and Oocyte Maturation via Autocrine/Paracrine Signaling” (Frontiers in Endocrinology, 2018).
Where no end group is shown, it is not given here.

What was measured:
denuded oocytes = system: denuded oocytes; parameters: method as in 2 sources, one per row (each row's own in cited_ref): ref 76 = [76]; PMID 20382141; doi:10.1016/j.ydbio.2010.03.027; 76. Pang Y Thomas P . Role of G protein-coupled estrogen receptor 1, GPER, in inhibition of oocyte maturation by endogenous estrogens in zebrafish . Dev Biol. ( 2010 ) 342 : 194 – 206 . 10.1016/j.ydbi ||| ref 77 = [77]; PMID 21636738; doi:10.1095/biolreprod.111.091884; 77. Zhou R Tsang AH Lau SW Ge W . Pituitary adenylate cyclase-activating polypeptide (PACAP) and its receptors in the zebrafish ovary: evidence for potentially dual roles of pacap in controlling final; conditions: zebrafish, via GPER; cited from earlier work
Sp-sNPFR = target: T1, Sp-sNPFR (Scylla paramamosain, UniProt A0A345ZFF5); experiment: Ligand-receptor activation of signaling, dual-luciferase (pCRE-luc) reporter in HEK293T; type: cell-based; conditions: HEK293T transiently co-transfected with Sp-sNPFR/pEGFP-N1, pCRE-luc, pRL-TK; incubation 6 h; dual-luciferase read-out (Figure 3B legend: concentration of cAMP determined); nonlinear curve fitting; mean ± SD, three biological replicates
T1 sequence (A0A345ZFF5 1-458): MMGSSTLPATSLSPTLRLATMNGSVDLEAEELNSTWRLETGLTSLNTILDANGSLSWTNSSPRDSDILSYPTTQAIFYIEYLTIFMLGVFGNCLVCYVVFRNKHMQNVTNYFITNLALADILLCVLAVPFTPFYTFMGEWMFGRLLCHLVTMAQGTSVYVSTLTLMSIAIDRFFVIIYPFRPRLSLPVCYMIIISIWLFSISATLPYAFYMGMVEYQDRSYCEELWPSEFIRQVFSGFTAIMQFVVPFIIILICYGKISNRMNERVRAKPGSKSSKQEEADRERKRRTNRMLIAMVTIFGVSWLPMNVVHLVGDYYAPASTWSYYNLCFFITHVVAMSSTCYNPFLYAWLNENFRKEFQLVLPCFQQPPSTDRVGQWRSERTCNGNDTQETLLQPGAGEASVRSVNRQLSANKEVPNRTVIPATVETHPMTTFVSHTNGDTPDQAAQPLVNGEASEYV
Method: Human embryonic kidney cell lines (HEK293T) were maintained in high glucose DMEM (Hyclone) supplemented with 10% fetal bovine serum (Gibco), 100 U/mL penicillin and 100 μg/mL streptomycin (Hyclone) at 37°C in a humidified incubator (Thermo) containing 5% CO2. Cells were seeded overnight in 6-well plates and transiently co-transfected with 1 μg of the Sp-sNPFR/pEGFP-N1 plasmid, 0.8 μg of the reporter gene pCRE-luc, and 0.4 μg of internal control gene pRL-TK using 5 μL Lipofectamine 2000 (Invitrogen) reagent following the manufacturer's protocols. Empty pEGFP-N1 plasmid was used for mock transfection.
HEK293T transiently co-transfected with Sp-sNPFR/pEGFP-N1 and dual-luciferase reporter system vectors were grown to 90% confluency in a 24-well plate. Cells were first treated with synthetic Sp-sNPF peptide mixture and the mixture containing 9 synthetic FLPs (GL Biochem, Table 2) at 1 μM each. Further, various concentrations of individual peptides were used to record dose-dependent curves. After incubation for 6 h, ligand-induced changes in luciferase activity were measured by GloMax® 20/20 Luminometer (Promega) with Dual-Luciferase® Reporter Assay System Kit (Promega).
All values are expressed as mean ± SD. Multiple sequence alignment of sNPFR sequences was performed with ClustalX and embellished by LaTEX TexShade ([57]). Data of ligand-receptor assays were analyzed using nonlinear curve fitting (GraphPad Prism 6.0) to obtain activation curves and EC50 values. The mRNA levels of Sp-Vg and Sp-VgR gene were normalized against the internal control β-actin, and the relative expression was calculated using the 2^−ΔΔCt method. Statistical significance was determined using one-way ANOVA followed by Duncan's multiple range tests. All statistical analyses were performed using IBM SPSS Statistics 20.0. Pictures were drawn by GraphPad Prism 6.0 and modified with Adobe Photoshop CS5.

Molecule: C[C@]12CC[C@@H]3c4ccc(O)cc4CC[C@H]3[C@@H]1CC[C@@H]2O [E2, Estradiol]
- inhibition of spontaneous oocyte maturation (denuded oocytes): partly inhibited the spontaneous maturation of the denuded oocytes

Molecule: APPSMRLRF-NH2 [Sp-sNPF1]
- EC50 (Sp-sNPFR): 1.2 µM

Molecule: KDARTPALRLRF-NH2 [Sp-sNPF3]
- EC50 (Sp-sNPFR): 8.5 µM

Molecule: SMPTLRLRF-NH2 [Sp-sNPF2]
- EC50 (Sp-sNPFR): 3.8 µM
